Measurements: ChEMBL document CHEMBL4507305, “Data for DCP probe TP-024” (2021)

Legend:
[1] = tested on: Tyrosine-protein kinase ABL1 (Homo sapiens), P00519 [E255K]; conditions: Compound concentration 1000.0 nM
[2] = tested on: Tyrosine-protein kinase ABL1 (Homo sapiens), P00519 [T315I]; conditions: Compound concentration 1000.0 nM
[3] = molecular target: Aurora kinase A (Homo sapiens) (UniProt O14965); conditions: Compound concentration 1000.0 nM
[4] = molecular target: Calcium/calmodulin-dependent protein kinase kinase 2 (Homo sapiens) (UniProt Q96RR4); conditions: Compound concentration 1000.0 nM
[5] = molecular target: Cyclin-dependent kinase 11B (Homo sapiens) (UniProt P21127); conditions: Compound concentration 1000.0 nM
[6] = molecular target: Cyclin-dependent kinase 11A (Homo sapiens) (UniProt Q9UQ88); conditions: Compound concentration 1000.0 nM
[7] = molecular target: Dual specificity protein kinase CLK1 (Homo sapiens) (UniProt P49759); conditions: Compound concentration 1000.0 nM
[8] = molecular target: Macrophage colony-stimulating factor 1 receptor (Homo sapiens) (UniProt P07333); conditions: Compound concentration 1000.0 nM
[9] = molecular target: Casein kinase I isoform gamma-2 (Homo sapiens) (UniProt P78368); conditions: Compound concentration 1000.0 nM
[10] = molecular target: Death-associated protein kinase 2 (Homo sapiens) (UniProt Q9UIK4); conditions: Compound concentration 1000.0 nM
[11] = tested on: Epidermal growth factor receptor (Homo sapiens), P00533 [L861Q]; conditions: Compound concentration 1000.0 nM
[12] = tested on: Epidermal growth factor receptor (Homo sapiens), P00533 [UNDEFINED MUTATION]; conditions: Compound concentration 1000.0 nM
[13] = molecular target: Ephrin type-B receptor 3 (Homo sapiens) (UniProt P54753); conditions: Compound concentration 1000.0 nM
[14] = molecular target: Mitogen-activated protein kinase 6 (Homo sapiens) (UniProt Q16659); conditions: Compound concentration 1000.0 nM
[15] = molecular target: Tyrosine-protein kinase Fes/Fps (Homo sapiens) (UniProt P07332); conditions: Compound concentration 1000.0 nM
[16] = tested on: Receptor-type tyrosine-protein kinase FLT3 (Homo sapiens), P36888 [D835H]; conditions: Compound concentration 1000.0 nM
[17] = tested on: Receptor-type tyrosine-protein kinase FLT3 (Homo sapiens), P36888 [D835Y]; conditions: Compound concentration 1000.0 nM
[18] = tested on: Receptor-type tyrosine-protein kinase FLT3 (Homo sapiens), P36888 [R834Q]; conditions: Compound concentration 1000.0 nM
[19] = molecular target: Tyrosine-protein kinase Fyn (Homo sapiens) (UniProt P06241); conditions: Compound concentration 1000.0 nM
[20] = molecular target: Interleukin-1 receptor-associated kinase 4 (Homo sapiens) (UniProt Q9NWZ3); conditions: Compound concentration 1000.0 nM
[21] = molecular target: Mitogen-activated protein kinase 8 (Homo sapiens) (UniProt P45983); conditions: Compound concentration 1000.0 nM
[22] = tested on: Hepatocyte growth factor receptor (Homo sapiens), P08581 [Y1235D]; conditions: Compound concentration 1000.0 nM
[23] = molecular target: Mitogen-activated protein kinase kinase kinase 9 (Homo sapiens) (UniProt P80192); conditions: Compound concentration 1000.0 nM
[24] = molecular target: Mitogen-activated protein kinase kinase kinase 10 (Homo sapiens) (UniProt Q02779); conditions: Compound concentration 1000.0 nM
[25] = molecular target: Serine/threonine-protein kinase MRCK alpha (Homo sapiens) (UniProt Q5VT25); conditions: Compound concentration 1000.0 nM
[26] = molecular target: Serine/threonine-protein kinase mTOR (Homo sapiens) (UniProt P42345); conditions: Compound concentration 1000.0 nM
[27] = molecular target: Myosin light chain kinase family member 4 (Homo sapiens) (UniProt Q86YV6); conditions: Compound concentration 1000.0 nM
[28] = molecular target: Serine/threonine-protein kinase Nek2 (Homo sapiens) (UniProt P51955); conditions: Compound concentration 1000.0 nM
[29] = molecular target: Serine/threonine-protein kinase Nek7 (Homo sapiens) (UniProt Q8TDX7); conditions: Compound concentration 1000.0 nM
[30] = molecular target: Mitogen-activated protein kinase kinase kinase 14 (Homo sapiens) (UniProt Q99558); conditions: Compound concentration 1000.0 nM
[31] = molecular target: Mitogen-activated protein kinase 12 (Homo sapiens) (UniProt P53778); conditions: Compound concentration 1000.0 nM
[32] = molecular target: Platelet-derived growth factor receptor alpha (Homo sapiens) (UniProt P16234); conditions: Compound concentration 1000.0 nM
[33] = molecular target: Calcium-dependent protein kinase 1 (Plasmodium falciparum) (UniProt P62344); conditions: Compound concentration 1000.0 nM
[34] = molecular target: Cyclin-dependent kinase 15 (Homo sapiens) (UniProt Q96Q40); conditions: Compound concentration 1000.0 nM
[35] = tested on: Phosphatidylinositol 4,5-bisphosphate 3-kinase catalytic subunit alpha isoform (Homo sapiens), P42336 [H1047Y]; conditions: Compound concentration 1000.0 nM
[36] = molecular target: Ribosomal protein S6 kinase alpha-3 (Homo sapiens) (UniProt P51812); conditions: Compound concentration 1000.0 nM
[37] = molecular target: Serine/threonine-protein kinase SIK1 (Homo sapiens) (UniProt P57059); conditions: Compound concentration 1000.0 nM
[38] = molecular target: Serine/threonine-protein kinase 16 (Homo sapiens) (UniProt O75716); conditions: Compound concentration 1000.0 nM
[39] = molecular target: Serine/threonine-protein kinase tousled-like 1 (Homo sapiens) (UniProt Q9UKI8); conditions: Compound concentration 1000.0 nM
[40] = molecular target: TRAF2 and NCK-interacting protein kinase (Homo sapiens) (UniProt Q9UKE5); conditions: Compound concentration 1000.0 nM
[41] = molecular target: Dual specificity protein kinase TTK (Homo sapiens) (UniProt P33981); conditions: Compound concentration 1000.0 nM
[42] = molecular target: Wee1-like protein kinase (Homo sapiens) (UniProt P30291); conditions: Compound concentration 1000.0 nM
[43] = molecular target: D(1A) dopamine receptor (Homo sapiens) (UniProt P21728); conditions: Compound concentration 10.0 uM
[44] = molecular target: Histamine H2 receptor (Homo sapiens) (UniProt P25021); conditions: Compound concentration 10.0 uM
[45] = molecular target: Muscarinic acetylcholine receptor M1 (Homo sapiens) (UniProt P11229); conditions: Compound concentration 10.0 uM

Serine/threonine-protein kinase SIK1 (Homo sapiens), sequence (P57059 whole entry): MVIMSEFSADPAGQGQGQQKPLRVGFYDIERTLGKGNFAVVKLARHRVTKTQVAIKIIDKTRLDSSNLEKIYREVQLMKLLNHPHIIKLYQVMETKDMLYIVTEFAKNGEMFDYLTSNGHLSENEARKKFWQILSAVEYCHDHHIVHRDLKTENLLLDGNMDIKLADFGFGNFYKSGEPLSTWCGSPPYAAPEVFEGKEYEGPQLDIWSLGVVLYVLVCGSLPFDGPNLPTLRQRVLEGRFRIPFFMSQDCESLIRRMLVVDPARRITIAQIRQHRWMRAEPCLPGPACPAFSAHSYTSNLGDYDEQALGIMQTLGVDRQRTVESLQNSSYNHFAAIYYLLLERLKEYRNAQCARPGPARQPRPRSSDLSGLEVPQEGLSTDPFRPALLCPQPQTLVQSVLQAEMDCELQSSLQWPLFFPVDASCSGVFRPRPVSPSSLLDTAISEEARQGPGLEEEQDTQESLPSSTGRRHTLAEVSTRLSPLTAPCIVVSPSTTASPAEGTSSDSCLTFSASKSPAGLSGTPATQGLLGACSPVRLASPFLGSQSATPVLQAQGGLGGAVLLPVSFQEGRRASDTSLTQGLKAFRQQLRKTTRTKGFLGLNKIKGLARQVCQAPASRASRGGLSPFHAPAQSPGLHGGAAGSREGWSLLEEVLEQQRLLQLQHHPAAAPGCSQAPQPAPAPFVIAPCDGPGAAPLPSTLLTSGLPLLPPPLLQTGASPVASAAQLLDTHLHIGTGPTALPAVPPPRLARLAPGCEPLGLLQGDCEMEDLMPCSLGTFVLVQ
Mitogen-activated protein kinase kinase kinase 14 (Homo sapiens), sequence (Q99558 whole entry, looked up): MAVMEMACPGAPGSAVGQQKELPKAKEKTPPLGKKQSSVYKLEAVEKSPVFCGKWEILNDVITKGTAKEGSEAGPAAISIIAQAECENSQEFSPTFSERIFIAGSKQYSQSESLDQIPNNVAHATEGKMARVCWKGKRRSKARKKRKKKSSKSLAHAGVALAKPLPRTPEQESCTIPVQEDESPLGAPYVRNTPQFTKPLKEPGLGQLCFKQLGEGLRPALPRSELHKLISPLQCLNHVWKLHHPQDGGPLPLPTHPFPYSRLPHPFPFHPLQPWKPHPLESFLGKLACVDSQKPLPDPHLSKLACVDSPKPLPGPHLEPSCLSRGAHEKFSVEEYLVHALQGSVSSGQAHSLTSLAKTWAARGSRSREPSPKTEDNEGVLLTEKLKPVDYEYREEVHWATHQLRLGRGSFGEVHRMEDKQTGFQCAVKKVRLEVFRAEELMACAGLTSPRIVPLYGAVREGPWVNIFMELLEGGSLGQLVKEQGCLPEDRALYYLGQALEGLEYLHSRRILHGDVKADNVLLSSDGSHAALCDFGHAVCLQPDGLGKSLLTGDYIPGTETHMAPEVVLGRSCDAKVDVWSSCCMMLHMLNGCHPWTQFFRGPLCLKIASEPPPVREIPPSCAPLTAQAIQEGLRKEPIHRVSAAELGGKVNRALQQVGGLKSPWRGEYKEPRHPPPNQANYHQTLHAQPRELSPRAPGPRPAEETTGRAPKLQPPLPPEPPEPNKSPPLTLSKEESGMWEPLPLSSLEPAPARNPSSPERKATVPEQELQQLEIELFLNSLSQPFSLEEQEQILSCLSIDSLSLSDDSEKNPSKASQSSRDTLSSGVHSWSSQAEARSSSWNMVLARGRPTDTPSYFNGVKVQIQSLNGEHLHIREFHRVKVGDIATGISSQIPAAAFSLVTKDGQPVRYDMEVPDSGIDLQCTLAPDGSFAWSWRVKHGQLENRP
Serine/threonine-protein kinase Nek2 (Homo sapiens), sequence (P51955 whole entry): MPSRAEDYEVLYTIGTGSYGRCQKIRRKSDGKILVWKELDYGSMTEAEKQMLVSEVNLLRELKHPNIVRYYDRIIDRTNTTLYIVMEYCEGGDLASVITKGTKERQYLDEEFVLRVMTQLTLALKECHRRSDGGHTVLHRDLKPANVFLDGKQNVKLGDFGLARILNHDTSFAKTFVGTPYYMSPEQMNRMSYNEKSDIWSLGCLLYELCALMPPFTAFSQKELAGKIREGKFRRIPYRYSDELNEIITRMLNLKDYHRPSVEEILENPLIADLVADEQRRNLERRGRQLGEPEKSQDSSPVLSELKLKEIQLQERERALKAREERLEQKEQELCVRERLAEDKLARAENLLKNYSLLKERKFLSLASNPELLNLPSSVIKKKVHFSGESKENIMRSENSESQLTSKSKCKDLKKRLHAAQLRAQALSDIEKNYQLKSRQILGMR
Serine/threonine-protein kinase MRCK alpha (Homo sapiens), sequence (Q5VT25 whole entry): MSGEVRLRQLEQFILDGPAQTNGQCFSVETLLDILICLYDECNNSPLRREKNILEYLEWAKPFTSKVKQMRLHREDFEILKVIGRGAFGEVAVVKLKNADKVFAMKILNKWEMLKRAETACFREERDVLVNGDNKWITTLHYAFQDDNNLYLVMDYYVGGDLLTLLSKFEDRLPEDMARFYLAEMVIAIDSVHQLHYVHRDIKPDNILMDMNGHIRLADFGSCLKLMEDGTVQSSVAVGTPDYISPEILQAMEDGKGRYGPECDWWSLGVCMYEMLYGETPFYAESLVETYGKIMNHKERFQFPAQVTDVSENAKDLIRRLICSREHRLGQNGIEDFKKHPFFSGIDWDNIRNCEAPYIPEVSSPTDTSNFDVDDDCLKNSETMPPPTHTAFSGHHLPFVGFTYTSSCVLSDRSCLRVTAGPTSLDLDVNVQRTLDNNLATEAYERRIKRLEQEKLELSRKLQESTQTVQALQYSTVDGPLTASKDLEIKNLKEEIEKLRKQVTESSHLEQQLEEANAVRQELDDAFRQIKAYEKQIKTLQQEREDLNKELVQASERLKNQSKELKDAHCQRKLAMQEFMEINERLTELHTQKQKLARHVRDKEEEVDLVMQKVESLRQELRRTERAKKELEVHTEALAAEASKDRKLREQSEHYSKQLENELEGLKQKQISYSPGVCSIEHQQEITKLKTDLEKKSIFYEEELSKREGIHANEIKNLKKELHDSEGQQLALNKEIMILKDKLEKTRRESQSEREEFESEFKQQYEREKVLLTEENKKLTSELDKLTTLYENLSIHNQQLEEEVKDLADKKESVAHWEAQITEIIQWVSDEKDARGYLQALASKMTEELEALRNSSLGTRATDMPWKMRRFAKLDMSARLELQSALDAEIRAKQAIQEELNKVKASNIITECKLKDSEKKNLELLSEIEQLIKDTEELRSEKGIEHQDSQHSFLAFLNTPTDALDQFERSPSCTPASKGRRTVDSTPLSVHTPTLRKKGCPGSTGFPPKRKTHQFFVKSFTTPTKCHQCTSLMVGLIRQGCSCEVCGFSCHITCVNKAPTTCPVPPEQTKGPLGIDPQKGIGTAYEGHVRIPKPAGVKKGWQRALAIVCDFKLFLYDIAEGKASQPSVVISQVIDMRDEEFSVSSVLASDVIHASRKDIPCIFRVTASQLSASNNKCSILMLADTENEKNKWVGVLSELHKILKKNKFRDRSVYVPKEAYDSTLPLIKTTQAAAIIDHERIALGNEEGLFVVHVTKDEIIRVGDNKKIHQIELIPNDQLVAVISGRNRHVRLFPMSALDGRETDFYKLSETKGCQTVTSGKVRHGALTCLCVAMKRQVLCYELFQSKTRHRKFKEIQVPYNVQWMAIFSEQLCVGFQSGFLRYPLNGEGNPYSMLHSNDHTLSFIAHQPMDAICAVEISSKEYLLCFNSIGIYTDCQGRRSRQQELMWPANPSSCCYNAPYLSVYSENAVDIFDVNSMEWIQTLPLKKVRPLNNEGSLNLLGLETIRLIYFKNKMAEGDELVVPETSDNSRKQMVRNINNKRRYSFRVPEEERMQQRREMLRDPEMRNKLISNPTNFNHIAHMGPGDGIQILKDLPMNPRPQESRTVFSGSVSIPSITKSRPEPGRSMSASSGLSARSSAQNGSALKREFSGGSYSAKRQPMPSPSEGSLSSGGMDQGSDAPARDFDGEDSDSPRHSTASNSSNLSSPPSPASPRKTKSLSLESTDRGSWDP
Cyclin-dependent kinase 15 (Homo sapiens), sequence (Q96Q40 whole entry, canonical isoform): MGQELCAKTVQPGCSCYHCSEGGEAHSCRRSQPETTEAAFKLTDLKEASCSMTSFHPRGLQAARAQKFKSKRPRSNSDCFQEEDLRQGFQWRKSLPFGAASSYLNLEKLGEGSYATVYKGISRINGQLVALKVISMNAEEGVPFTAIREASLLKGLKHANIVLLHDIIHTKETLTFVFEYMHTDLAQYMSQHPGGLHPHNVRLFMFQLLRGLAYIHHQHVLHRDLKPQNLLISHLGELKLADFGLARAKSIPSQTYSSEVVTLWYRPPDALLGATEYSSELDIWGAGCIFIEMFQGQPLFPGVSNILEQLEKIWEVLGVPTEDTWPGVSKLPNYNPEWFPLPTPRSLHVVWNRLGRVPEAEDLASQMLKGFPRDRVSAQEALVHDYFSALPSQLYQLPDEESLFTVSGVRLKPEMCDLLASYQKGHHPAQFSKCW
Death-associated protein kinase 2 (Homo sapiens), sequence (Q9UIK4 whole entry, looked up): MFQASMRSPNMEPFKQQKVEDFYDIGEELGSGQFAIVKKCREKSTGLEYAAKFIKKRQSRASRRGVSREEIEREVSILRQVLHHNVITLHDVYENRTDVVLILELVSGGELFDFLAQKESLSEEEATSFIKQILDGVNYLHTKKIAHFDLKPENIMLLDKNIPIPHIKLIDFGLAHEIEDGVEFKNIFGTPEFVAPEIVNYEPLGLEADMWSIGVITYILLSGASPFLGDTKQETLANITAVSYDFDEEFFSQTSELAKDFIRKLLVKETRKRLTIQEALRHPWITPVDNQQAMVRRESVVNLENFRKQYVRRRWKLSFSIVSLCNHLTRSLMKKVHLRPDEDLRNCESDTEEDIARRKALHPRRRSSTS
Serine/threonine-protein kinase 16 (Homo sapiens), sequence (O75716 whole entry): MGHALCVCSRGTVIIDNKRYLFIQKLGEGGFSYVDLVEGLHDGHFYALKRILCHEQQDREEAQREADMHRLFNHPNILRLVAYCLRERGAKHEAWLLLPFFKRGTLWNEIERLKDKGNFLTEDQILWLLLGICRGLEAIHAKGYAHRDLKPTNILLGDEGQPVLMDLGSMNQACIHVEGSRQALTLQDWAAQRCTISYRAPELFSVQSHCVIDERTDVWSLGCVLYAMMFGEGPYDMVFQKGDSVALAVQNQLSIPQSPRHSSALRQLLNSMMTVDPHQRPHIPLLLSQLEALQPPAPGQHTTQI

Cc1cc(-n2nc(Cc3cc(F)cc(C(F)(F)F)c3)nc2C)ccc1C(N)=O [TP-024]
inactive: residual activity [1] 93% | residual activity [2] 98% | residual activity [3] 99% | residual activity [4] 100% | residual activity [5] 100% | residual activity [6] 100% | residual activity [7] 86% | residual activity [8] 100% | residual activity [9] 79% | residual activity [10] 95% | residual activity [11] 100% | residual activity [12] 100% | residual activity [13] 100% | residual activity [14] 100% | residual activity [15] 100% | residual activity [16] 100% | residual activity [17] 100% | residual activity [18] 77% | residual activity [19] 100% | residual activity [20] 100% | residual activity [21] 78% | residual activity [22] 90% | residual activity [23] 100% | residual activity [24] 95% | residual activity [25] 100% | residual activity [26] 78% | residual activity [27] 100% | residual activity [28] 100% | residual activity [29] 97% | residual activity [30] 100% | residual activity [31] 100% | residual activity [32] 100% | residual activity [33] 100% | residual activity [34] 88% | residual activity [35] 78% | residual activity [36] 100% | residual activity [37] 100% | residual activity [38] 91% | residual activity [39] 93% | residual activity [40] 100% | residual activity [41] 90% | residual activity [42] 100% | inhibition [43] -4.72% | inhibition [44] 6.28% | inhibition [45] -7.57%

Cc1nc(Cc2cccc(C(F)(F)F)c2)sc1-c1ccc(C(N)=O)nc1 [TP-024n]
inactive: residual activity [1] 85% | residual activity [2] 100% | residual activity [3] 100% | residual activity [4] 91% | residual activity [5] 97% | residual activity [6] 92% | residual activity [7] 83% | residual activity [8] 85% | residual activity [9] 82% | residual activity [10] 89% | residual activity [11] 100% | residual activity [12] 100% | residual activity [13] 100% | residual activity [14] 100% | residual activity [15] 99% | residual activity [16] 100% | residual activity [17] 92% | residual activity [18] 92% | residual activity [19] 100% | residual activity [20] 100% | residual activity [21] 90% | residual activity [22] 91% | residual activity [23] 100% | residual activity [24] 71% | residual activity [25] 81% | residual activity [26] 87% | residual activity [27] 91% | residual activity [28] 100% | residual activity [29] 98% | residual activity [30] 100% | residual activity [31] 100% | residual activity [32] 88% | residual activity [33] 100% | residual activity [34] 86% | residual activity [35] 100% | residual activity [36] 99% | residual activity [37] 100% | residual activity [38] 100% | residual activity [39] 100% | residual activity [40] 100% | residual activity [41] 82% | residual activity [42] 96% | inhibition [43] -6.03% | inhibition [44] 6.05% | inhibition [45] 10%
